# Data as given in patent US9422240B2, “Partially saturated nitrogen-containing heterocyclic compound” (TAISHO PHARMACEUTICAL CO., LTD, priority 2012, dated 2016).
# Where a name gives a salt, the structure may show the parent alone.
# Key:
# human PHD2 [1] = target: T1, human PHD2 (Homo sapiens (Human), UniProt Q9GZT9); assay: Test 2: human PHD2 inhibitory activity, fluorescence polarization assay of HIF-1α peptide proline hydroxylation; format: biochemical; details: read-out: Percent inhibition (% at 1 μM)
# T1 sequence (Q9GZT9 whole entry): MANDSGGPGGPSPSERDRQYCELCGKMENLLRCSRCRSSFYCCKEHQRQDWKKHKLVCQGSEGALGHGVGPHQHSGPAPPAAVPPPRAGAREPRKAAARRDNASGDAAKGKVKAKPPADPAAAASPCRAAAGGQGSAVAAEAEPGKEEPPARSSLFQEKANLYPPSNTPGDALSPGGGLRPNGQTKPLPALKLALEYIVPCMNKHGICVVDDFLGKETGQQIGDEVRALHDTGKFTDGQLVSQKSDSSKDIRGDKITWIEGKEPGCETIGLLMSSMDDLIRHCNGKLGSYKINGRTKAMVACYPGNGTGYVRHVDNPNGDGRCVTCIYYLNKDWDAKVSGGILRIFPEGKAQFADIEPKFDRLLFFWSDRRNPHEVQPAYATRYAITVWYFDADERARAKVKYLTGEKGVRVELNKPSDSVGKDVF
# Summary of the method: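 Enzyme from lysate of cells expressing human PHD2 (NM_022051), 40 ng/well, added to compound and 19-residue HIF-1α peptide substrate; 20 min at 30° C., EDTA quench. Prolyl hydroxylation detected by HIF-OH antibody binding via fluorescence polarization; inhibition relative to compound-free wells.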
# human PHD2 [2] = target: T1, human PHD2; assay: Test 1: human PHD2 inhibitory activity, [14C]-2-oxoglutarate to [14C]-succinic acid radiometric assay with HIF-1α peptide; format: biochemical; details: read-out: Percent inhibition (% at 1 μM)
# Summary of the method: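 Lysate from HighFive insect cells expressing human PHD2 (4 μg/well) was incubated for 15 min at 37° C with a 19-residue HIF-1α peptide and [14C]-2-oxoglutarate. Unreacted 2-oxoglutarate was precipitated with DNPH and filtered off, and [14C]-succinic acid was counted. Inhibition was calculated relative to substrate-free and compound-free controls.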
# [3] = test compound's concentration 1 μM, Test 2, fluorescence polarization assay
# [4] = test compound's concentration 1 μM, Test 1, [14C]-2-oxoglutarate radiometric assay
inhibition at 1 µM (human PHD2 [1]; [3]) [%],inhibition at 1 µM (human PHD2 [2]; [4]) [%],Compound,inhibition at 1 µM (human PHD2 [1]) [%],inhibition at 1 µM (human PHD2 [2]) [%]
79,61,CC1(C)CN(Cc2ccc(OCC3CC3)cc2)C(=O)C(C(=O)NCC(=O)O)=C1O [Ex. 1-302],,
100,102,Cc1ccc(Oc2ccc(CN3C(=O)C(C(=O)NCC(=O)O)=C(O)CC34CC4)cn2)cc1 [Ex. 1-303],,
97,94,Cc1ccc(COc2ccc(CN3CCC(O)=C(C(=O)NCC(=O)O)C3=O)cc2)cc1 [Ex. 1-305],,
99,94,O=C(O)CNC(=O)C1=C(O)CCN(Cc2ccc(OCc3cccc(Cl)c3)cc2)C1=O [Ex. 1-306],,
88,93,"Cc1ccc(-c2ccc(CN3CCC(O)=C(C(=O)NCC(=O)O)C3=O)cc2)cc1 [Ex. 2-1, N-({4-Hydroxy-1-[(4′-methylbiphenyl-4-yl)methyl]-2-oxo-1,2,5,6-tetrahydropyridin-3-yl}carbonyl)glycine]",,
80,68,Cn1cc(-c2ccc(CN3CCC(O)=C(C(=O)NCC(=O)O)C3=O)cc2)cn1 [Ex. 2-6],,
88,87,O=C(O)CNC(=O)C1=C(O)CCN(Cc2ccc(-c3cnoc3)cc2)C1=O [Ex. 2-8],,
91,93,O=C(O)CNC(=O)C1=C(O)CCN(Cc2ccc(-c3ccc(Cl)cc3)cc2)C1=O [Ex. 2-11],,
91,93,COc1ccc(-c2ccc(CN3CCC(O)=C(C(=O)NCC(=O)O)C3=O)cc2)cc1 [Ex. 2-12],,
90,97,CN(C)S(=O)(=O)c1ccc(-c2ccc(CN3CCC(O)=C(C(=O)NCC(=O)O)C3=O)cc2)cc1 [Ex. 2-15],,
93,102,CC(=O)c1ccc(-c2ccc(CN3CCC(O)=C(C(=O)NCC(=O)O)C3=O)cc2)cc1 [Ex. 2-16],,
93,102,Cc1nc(C)c(-c2ccc(CN3CCC(O)=C(C(=O)NCC(=O)O)C3=O)cc2)s1 [Ex. 2-20],,
93,88,O=C(O)CNC(=O)C1=C(O)CCN(Cc2ccc(-c3ccc(C(F)(F)F)nc3)cc2)C1=O [Ex. 2-21],,
93,91,O=C(O)CNC(=O)C1=C(O)CCN(Cc2ccc(-c3ccc(C(F)(F)F)cc3)cc2)C1=O [Ex. 2-24],,
95,90,COc1cccc(-c2ccc(CN3CCC(O)=C(C(=O)NCC(=O)O)C3=O)cc2)c1 [Ex. 2-26],,
96,100,O=C(O)CNC(=O)C1=C(O)CCN(Cc2ccc(-c3ccc4ncccc4c3)cc2)C1=O [Ex. 2-27],,
95,101,O=C(O)CNC(=O)C1=C(O)CCN(Cc2ccc(-c3ccc(F)cc3)c(F)c2)C1=O [Ex. 2-29],,
67,58,"COc1ccc(CN2CCC(O)=C(C(=O)NCC(=O)O)C2=O)c(OC)c1 [Ex. 4-1, N-{[1-(2,4-Dimethoxybenzyl)-4-hydroxy-2-oxo-1,2,5,6-tetrahydropyridin-3-yl]carbonyl}glycine]",,
81,77,"C=CCOc1ccc(CN2CCC(O)=C(C(=O)NCC(=O)O)C2=O)cc1 [Ex. 4-2, N-({4-Hydroxy-2-oxo-1-[4-(prop-2-en-1-yloxy)benzyl]-1,2,5,6-tetrahydropyridin-3-yl}carbonyl)glycine]",,

# More lines, now with the values behind:
Compound,inhibition at 1 µM (human PHD2 [1]; [3]) [%],inhibition at 1 µM (human PHD2 [2]; [4]) [%],inhibition at 1 µM (human PHD2 [1]) [%],inhibition at 1 µM (human PHD2 [2]) [%]
Cn1nc(CN2C(=O)C(C(=O)NCC(=O)O)=C(O)CC2(C)C)cc1-c1ccccc1 [Ex. 1-300],43,30,,
Cc1nc(-c2ccccc2)oc1CN1C(=O)C(C(=O)NCC(=O)O)=C(O)CC1(C)C [Ex. 1-301],75,56,,
CC1(C)CN(Cc2ccc(OC(F)(F)F)c(Cl)c2)C(=O)C(C(=O)NCC(=O)O)=C1O [Ex. 1-304],72,35,,
O=C(O)CNC(=O)C1=C(O)CCN(C2CCCCC2)C1=O [Ex. 1-307],60,51,,
O=C(O)CNC(=O)C1=C(O)CCN(Cc2ccc(-c3cccnc3)cc2)C1=O [Ex. 2-7],91,88,,
CC(C)c1cccc(-c2ccc(CN3CCC(O)=C(C(=O)NCC(=O)O)C3=O)cc2)c1 [Ex. 2-9],82,78,,
O=C(O)CNC(=O)C1=C(O)CCN(Cc2ccc(-c3ccc(-c4ccccc4)cc3)cc2)C1=O [Ex. 2-10],79,84,,
COc1ccc(-c2ccc(CN3CCC(O)=C(C(=O)NCC(=O)O)C3=O)cc2)cn1 [Ex. 2-13],87,92,,
N#Cc1ccc(-c2ccc(CN3CCC(O)=C(C(=O)NCC(=O)O)C3=O)cc2)cc1 [Ex. 2-14],93,98,,
Cn1nccc1-c1ccc(CN2CCC(O)=C(C(=O)NCC(=O)O)C2=O)cc1 [Ex. 2-17],87,94,,
O=C(O)CNC(=O)C1=C(O)CCN(Cc2ccc(-c3ccsc3)cc2)C1=O [Ex. 2-18],91,98,,
O=C(O)CNC(=O)C1=C(O)CCN(Cc2ccc(-c3ccncc3)cc2)C1=O [Ex. 2-19],93,96,,
O=C(O)CNC(=O)C1=C(O)CCN(Cc2ccc(-c3cccc(Cl)c3)cc2)C1=O [Ex. 2-22],94,95,,
O=C(O)CNC(=O)C1=C(O)CCN(Cc2ccc(-c3ccc(Cl)c(Cl)c3)cc2)C1=O [Ex. 2-23],96,88,,
Cc1cccc(-c2ccc(CN3CCC(O)=C(C(=O)NCC(=O)O)C3=O)cc2)c1 [Ex. 2-25],96,92,,
O=C(O)CNC(=O)C1=C(O)CCN(Cc2ccc(-c3ccc(F)cc3)cc2)C1=O [Ex. 2-28],97,90,,
O=C(O)CNC(=O)C1=C(O)CCN(Cc2ccc(-c3ccc(O)cc3)cc2)C1=O [Ex. 2-30],99,103,,
"O=C(O)CNC(=O)C1=C(O)CCN(Cc2ccc(C3CCCC3)cc2)C1=O [Ex. 3-1, N-{[1-(4-Cyclopentylbenzyl)-4-hydroxy-2-oxo-1,2,5,6-tetrahydropyridin-3-yl]carbonyl}glycine sodium salt]",,,95,102
"O=C(O)CNC(=O)C1=C(O)CCN(Cc2ccc(C3CC3)cc2)C1=O [Ex. 3-2, N-{[1-(4-Cyclopropylbenzyl)-4-hydroxy-2-oxo-1,2,5,6-tetrahydropyridin-3-yl]carbonyl}glycine sodium salt]",,,90,87
